Source: patent US20250154525A1, “PLANT VIRUS MOVEMENT PROTEINS AND METHODS OF USING SAME” (Molecular Transfer, Inc., priority 2016, published 2025)

Tests used:
HeLa Cells [1] = experiment: GFP plasmid transfection with DOTMA/DOPE plus plant virus movement protein derived peptides (Example 2); type: cell-based; conditions: 1-6 μL of transfection reagents
Method: (§1) Cells were plated to so that on the day of transfection the cells were 70% confluent in 96 well tissue culture plates. A DOMTA/DOPE Lipid solution (1:1 molar ratio) at 2 mg/mL in water were mixed with an equal volume of plant virus movement protein derived peptides that had the nucleic acid binding moiety RRRRRRRRRRRR (SEQ ID NO:109) or KKKKKKKKKKKKKKKK (SEQ ID NO: 102) covalently linked to the N-terminus, or C-terminus of each peptide during peptide synthesis. Peptides were at 2 mg/mL in water. The DOTMA/DOPE and the plant virus movement peptide solution the was diluted 1 to 1 (v/v) in water. DOMTA/DOPE/PEPTIDE solutions were added to 0.1 mL of a plasmid DNA solution (EF1Alpha eGFP plasmid) at 10 μg/mL in OptiMEM.
(§2) All solutions were at room temperature. A volume of 0.2 mL of a 10 μg/mL solution of DNA was aliquoted into each well of a non-tissue cultured treated plate. 1-6 μL of transfection reagents were added to DNA solutions respectively. The transfection reagent and DNA solution was mixed by pipetting up and down twice. Transfection complexes were formed for 10 minutes. After 10 minutes, 0.01 or 0.02 mL of the transfection complex was added to cells. HuVEC, HeLa, human adult keratinocytes, human primary adult fibroblast, and A549 cells all respectively received 0.01 mL of the transfection complex. Human skeletal muscle cells, mouse C2C12 cells, and Jurkat, cells received 0.02 mL of the transfection complex. Cells were incubated for 42 hours at 37° C. at 5% CO2. Plates were read on a fluorescent plate reader. Cells were also examined visually under a microscope to assess the extent of transfection (in terms of the percent of cells transfected) with a fluorescent microscope. Other modes of analysis, for example quantification with B-galactosidase or luciferase reports plasmids can also be used.

HuVec Cells [2] = experiment: as above; type: cell-based; conditions: 42 hours
Method: as §1, §2

[3] = system: Human Primary Fibroblast Cells; experiment: as above; type: cell-based; conditions: 42 hours
Method: as §1, §2

HeLa Cells [4] = experiment: GFP plasmid transfection with DOTMA/DOPE plus surface ligand peptide, fluorescent plate reader (Example 1); type: cell-based; conditions: DOTMA/DOPE + peptide linked to R12 or K16; EF1Alpha eGFP plasmid; 42 hours
HuVec Cells [5] = experiment: as above; type: cell-based; conditions: DOTMA/DOPE + peptide linked to R12 or K16; EF1Alpha eGFP plasmid; 42 hours
Procedure, shortened: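 HuVEC cells in 96 well plates at 70% confluence were transfected with EF1Alpha eGFP plasmid using a 1:1 molar DOTMA/DOPE lipid mixed with a surface ligand peptide carrying a covalently attached nucleic acid binding moiety. Complexes formed for 10 minutes, 0.01 mL went to each well, cells were incubated 42 hours at 37° C., and fluorescence was read on a plate reader.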

Human Fibroblast Cells = experiment: as above; type: cell-based; conditions: DOTMA/DOPE + peptide linked to R12 or K16; EF1Alpha eGFP plasmid; 42 hours
Procedure, shortened: (§3)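 DOTMA/DOPE (1:1 molar) plus peptide bearing a poly-Arg or poly-Lys tag was complexed 10 min with EF1alpha eGFP plasmid in OptiMEM, then added to 70%-confluent cells (0.01 mL fibroblasts; 0.02 mL C2C12, Jurkat). After 42 h at 37 °C, GFP was read by plate reader and compared with DOTMA without ligand.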

Jurkat Cells = experiment: as above; type: cell-based; conditions: DOTMA/DOPE + peptide linked to R12 or K16; EF1Alpha eGFP plasmid; 42 hours
Procedure, shortened: as §3

NL-1 iPS Cells = experiment: as above; type: cell-based; conditions: DOTMA/DOPE + peptide linked to R12 or K16; EF1Alpha eGFP plasmid; 42 hours
C2C12 Cells = experiment: as above; type: cell-based, mouse; conditions: DOTMA/DOPE + peptide linked to R12 or K16; EF1Alpha eGFP plasmid; 42 hours
Procedure, shortened: as §3

[6] = value column 1 of 6, head not given, 1 µL transfection reagent
[7] = value column 3 of 6, head not given, 3 µL transfection reagent
[8] = value column 4 of 6, head not given, 4 µL transfection reagent

545 (KSVPNRTRTYIKLKRLRFKGAPYKAWRRRRRRRRRRRR) [compound 545]
Relative Fluorescence of Transfection of Hela Cells (HeLa Cells [1]; 2 µL transfection reagent): 28529 | Relative Fluorescence of Transfection of Hela Cells (HeLa Cells [1]; 5 µL transfection reagent): 13009 | Relative Fluorescence of Transfection of Hela Cells (HeLa Cells [1]; [6]): 11056 | Relative Fluorescence of Transfection of Hela Cells (HeLa Cells [1]; [7]): 28943 | Relative Fluorescence of Transfection of Hela Cells (HeLa Cells [1]; [8]): 14693 | Relative Fluorescence of Transfection of HuVEC Cells (HuVec Cells [2]; Transfection Agent 1 μl): 26545 Rf | Relative Fluorescence of Transfection of HuVEC Cells (HuVec Cells [2]; Transfection Agent 1.5 μl): 36649 Rf | Relative Fluorescence of Transfection of HuVEC Cells (HuVec Cells [2]; Transfection Agent 2 μl): 46890 Rf | Relative Fluorescence of Transfection of HuVEC Cells (HuVec Cells [2]; Transfection Agent 3 μl): 34047 Rf | Relative Fluorescence of Transfection of HuVEC Cells (HuVec Cells [2]; Transfection Agent 4 μl): 30893 Rf | Relative Fluorescence of Transfection of HuVEC Cells (HuVec Cells [2]; Transfection Agent 6 μl): 27133 Rf | Relative Fluorescence of Transfection of Human Primary Fibroblast Cells ([3]; Transfection Agent 1 μl): 34309 Rf | Relative Fluorescence of Transfection of Human Primary Fibroblast Cells ([3]; Transfection Agent 1.5 μl): 48184 Rf | Relative Fluorescence of Transfection of Human Primary Fibroblast Cells ([3]; Transfection Agent 2 μl): 37497 Rf | Relative Fluorescence of Transfection of Human Primary Fibroblast Cells ([3]; Transfection Agent 3 μl): 29067 Rf | Relative Fluorescence of Transfection of Human Primary Fibroblast Cells ([3]; Transfection Agent 4 μl): 28928 Rf | Relative Fluorescence of Transfection of Human Primary Fibroblast Cells ([3]; Transfection Agent 6 μl): 29256 Rf

546 (RTGVKRSYGAARGDDRRRPNVVRRRRRRRRRRRR) [compound 546]
Relative Fluorescence of Transfection of Hela Cells (HeLa Cells [1]; 2 µL transfection reagent): 15022 | Relative Fluorescence of Transfection of Hela Cells (HeLa Cells [1]; 5 µL transfection reagent): 8117 | Relative Fluorescence of Transfection of Hela Cells (HeLa Cells [1]; [6]): 15190 | Relative Fluorescence of Transfection of Hela Cells (HeLa Cells [1]; [7]): 12772 | Relative Fluorescence of Transfection of Hela Cells (HeLa Cells [1]; [8]): 11535 | Relative Fluorescence of Transfection of HuVEC Cells (HuVec Cells [2]; Transfection Agent 1 μl): 25990 Rf | Relative Fluorescence of Transfection of HuVEC Cells (HuVec Cells [2]; Transfection Agent 1.5 μl): 32762 Rf | Relative Fluorescence of Transfection of HuVEC Cells (HuVec Cells [2]; Transfection Agent 2 μl): 37899 Rf | Relative Fluorescence of Transfection of HuVEC Cells (HuVec Cells [2]; Transfection Agent 3 μl): 35528 Rf | Relative Fluorescence of Transfection of HuVEC Cells (HuVec Cells [2]; Transfection Agent 4 μl): 31614 Rf | Relative Fluorescence of Transfection of HuVEC Cells (HuVec Cells [2]; Transfection Agent 6 μl): 27690 Rf | Relative Fluorescence of Transfection of Human Primary Fibroblast Cells ([3]; Transfection Agent 1 μl): 31980 Rf | Relative Fluorescence of Transfection of Human Primary Fibroblast Cells ([3]; Transfection Agent 1.5 μl): 39259 Rf | Relative Fluorescence of Transfection of Human Primary Fibroblast Cells ([3]; Transfection Agent 2 μl): 41747 Rf | Relative Fluorescence of Transfection of Human Primary Fibroblast Cells ([3]; Transfection Agent 3 μl): 35020 Rf | Relative Fluorescence of Transfection of Human Primary Fibroblast Cells ([3]; Transfection Agent 4 μl): 32220 Rf | Relative Fluorescence of Transfection of Human Primary Fibroblast Cells ([3]; Transfection Agent 6 μl): 29476 Rf

CCCCCCCC/C=C\CCCCCCCCOCC(C[N+](C)(C)C)OCCCCCCCC/C=C\CCCCCCCC.[Cl-] (centres unmarked) [DOTMA, N-[1-(2,3-dioleyloxy)propyl]-N,N,N-trimethylammonium chloride, reference compound]
Relative Fluorescence of Transfection of HeLa Cells (RF) (HeLa Cells [4]): 7551 | Relative Fluorescence of Transfection of HuVec Cells (RF) (HuVec Cells [5]): 12230 | Relative Fluorescence of Transfection of Human Fibroblast Cells (RF) (Human Fibroblast Cells): 3397 | Relative Fluorescence of Transfection of Jurkat Cells (RF) (Jurkat Cells): 9084 | Relative Fluorescence of Transfection of NL-1 iPS Cells (RF) (NL-1 iPS Cells): 8965 | Relative Fluorescence of Transfection of C2C12 Cells (RF) (C2C12 Cells): 1289 | Relative Fluorescence of Transfection of Hela Cells (HeLa Cells [1]; 2 µL transfection reagent): 4782 | Relative Fluorescence of Transfection of Hela Cells (HeLa Cells [1]; 5 µL transfection reagent): 9694 | Relative Fluorescence of Transfection of Hela Cells (HeLa Cells [1]; [6]): 4424 | Relative Fluorescence of Transfection of Hela Cells (HeLa Cells [1]; [7]): 5377 | Relative Fluorescence of Transfection of Hela Cells (HeLa Cells [1]; [8]): 6992

540 (RRRRRRRRRRRRVDYGKWERKPIRCASMSR) [compound 540]
Relative Fluorescence of Transfection of Hela Cells (HeLa Cells [1]; 2 µL transfection reagent): 35653 | Relative Fluorescence of Transfection of Hela Cells (HeLa Cells [1]; 5 µL transfection reagent): 13917 | Relative Fluorescence of Transfection of Hela Cells (HeLa Cells [1]; [6]): 6422 | Relative Fluorescence of Transfection of Hela Cells (HeLa Cells [1]; [7]): 27970 | Relative Fluorescence of Transfection of Hela Cells (HeLa Cells [1]; [8]): 18620 | Relative Fluorescence of Transfection of HuVEC Cells (HuVec Cells [2]; Transfection Agent 1 μl): 24771 Rf | Relative Fluorescence of Transfection of HuVEC Cells (HuVec Cells [2]; Transfection Agent 1.5 μl): 34062 Rf | Relative Fluorescence of Transfection of HuVEC Cells (HuVec Cells [2]; Transfection Agent 2 μl): 44744 Rf | Relative Fluorescence of Transfection of HuVEC Cells (HuVec Cells [2]; Transfection Agent 3 μl): 44087 Rf | Relative Fluorescence of Transfection of HuVEC Cells (HuVec Cells [2]; Transfection Agent 4 μl): 45137 Rf | Relative Fluorescence of Transfection of HuVEC Cells (HuVec Cells [2]; Transfection Agent 6 μl): 30023 Rf | Relative Fluorescence of Transfection of Human Primary Fibroblast Cells ([3]; Transfection Agent 1 μl): 29368 Rf | Relative Fluorescence of Transfection of Human Primary Fibroblast Cells ([3]; Transfection Agent 1.5 μl): 40610 Rf | Relative Fluorescence of Transfection of Human Primary Fibroblast Cells ([3]; Transfection Agent 2 μl): 35505 Rf | Relative Fluorescence of Transfection of Human Primary Fibroblast Cells ([3]; Transfection Agent 3 μl): 33853 Rf | Relative Fluorescence of Transfection of Human Primary Fibroblast Cells ([3]; Transfection Agent 4 μl): 33063 Rf | Relative Fluorescence of Transfection of Human Primary Fibroblast Cells ([3]; Transfection Agent 6 μl): 30219 Rf
